Measured values reported in paper PMC6831561, “Pharmacological and Behavioral Effects of the Synthetic Cannabinoid AKB48 in Rats” (Frontiers in Neuroscience, 2019).
Like-named read-outs stand apart in the source and are kept apart here.

Assay: AKB48 plasma pharmacokinetics (LC-MS/MS)
Type: in vivo, rats
Conditions: for Tmax: male, Sprague-Dawley, rat, plasma, ip, read-out: time to peak plasma concentration (converted)
Protocol: To correlate the pharmacological effects of AKB48 with its blood levels, we measured somatosensory responses (visual, acoustic, and tactile), body temperature, and mechanical analgesia in rats at timed intervals post-AKB48 injection (for behavioral tests, see before), while simultaneously obtaining serial blood specimens for analysis of AKB48.
Sixteen male Sprague-Dawley rats were used in the study. Rats were anaesthetized with Equitesin [3 mL/kg intraperitoneal (ip); chloral hydrate 2.1 g, sodium pentobarbital 0.46 g, MgSO 1.06 g, propylene glycol 21.4 mL, ethanol (90%) 5.7 mL, H2O 3 mL] and implanted in the right jugular vein with a catheter, consisting of medical-grade tubing (Silastic, Dow Corning Corporation, MI, United States) according to the technique previously described ([Lecca et al., 2006]). A stable fixation in the mid-scapular region of the back was embedded by a polypropylene mesh (Evolution, BULEV, weight 48 g/mq, Dipromed, Italy). During the recovery period, at least 7 days after surgery, the catheters were flushed daily with 0.1 mL of gentamicin (40 mg/mL) and with heparinized saline (heparin 250 U/mL in 0.9% sterile saline). Fifteen days after recovery from surgery, rats were trained in handling, behavioral tests, and withdrawing blood from the catheter. Four groups of rats (n = 4) randomly received intraperitoneal injection of a single dose of AKB48 (0.1, 0.3, 0.5, or 3.0 mg/kg), and behavioral tests were conducted as previously reported in safety pharmacology studies (see before). Blood specimens (300 μL) were withdrawn via catheters immediately before the behavioral measurements (T = 0) and at 20, 40, 70, 140, and 195 min after drug injection. Blood specimens were collected into 1–mL vials containing sodium fluoride (4 mg/mL of blood) as preservative and anticoagulant. After each blood withdrawal, an equal volume of saline solution was infused via the intravenous catheter to maintain volume and osmotic homeostasis.
A dispersive liquid-liquid microextraction (DLLME) was performed for sample purification. Three hundred microliter of blood samples were spiked with 10 μL of JWH-209 D9 as an internal standard, achieving the final concentration of 20 ng/mL, and deproteinized with 500 μL of methanol. The sample was centrifuged at 10,000 rpm for 10 min, and 500 μL surnatant was transferred into a 15 mL conical tube containing 1 mL of water, 0.2 g of NaCl, and 100 μL of carbonate buffer, pH 9. In order to obtain the formation of the cloudy solution, 350 μL of a mixture, chloroform/methanol 1:2.5, respectively the extractant and the disperser solvent, was rapidly added to obtain the formation of a turbid mixture. […]

CCCCCn1nc(C(=O)NC23CC4CC(CC(C4)C2)C3)c2ccccc21 [AKB48, N-(1-adamantyl)-1-pentyl-1H-indazole-3-carboxamide]
plasma concentration versus dose (0.1–3.0 mg/kg i.p.): rising linearly
plasmatic concentrations after the peak (for the following 120 min): remained quite stable
Tmax (higher doses (0.5 and 3.0 mg/kg i.p.)): 60 min
Tmax (low doses (0.1 and 0.3 mg/kg i.p.)): 30 min
